The record followed here is patent US20040053972A1, “Medicinal compositions having improved absorbability” (priority 2000, published 2004).

`Fc1ccc(/C=C/c2nc(COc3ccc(CCCCn4ccnn4)cc3)co2)c(F)c1` [B7, 1-{4-[4-({2-[(E)-2-(2,4-Difluorophenyl)ethenyl]-1,3-oxazol-4-yl}methoxy)phenyl]butyl}-1H-1,2,3-triazole] gave a melting point of 115 to 117 °C.
The value for `Fc1ccc(/C=C/c2nc(COc3cccc(CCCn4ccnn4)c3)co2)c(F)c1` [B8, 1-{3-[3-({2-[(E)-2-(2,4-Difluorophenyl)ethenyl]-1,3-oxazol-4-yl}methoxy)phenyl]propyl}-1H-1,2,3-triazole] was 89 to 90 °C.
The value for `Cc1ccc(/C=C/c2nc(COc3ccc(CCCCn4ccnc4CCO)cc3)co2)cc1` [B10, 2-[1-[4-[4-[[2-[(E)-2-(4-Methylphenyl)ethenyl]-1,3-oxazol-4-yl]methoxy]phenyl]butyl]-1H-imidazol-2-yl]-1-ethanol] was 108 to 109 °C; that for `Cc1ccccc1/C=C/c1nc(COc2ccc(CCCCn3ccnc3CCO)cc2)co1` [B12, 2-[1-[4-[4-[[2-[(E)-2-(2-Methylphenyl)ethenyl]-1,3-oxazol-4-yl]methoxy]phenyl]butyl]-1H-imidazol-2-yl]-1-ethanol] was 91 to 93 °C.
The same measure for `CCc1ccc(/C=C/c2nc(COc3ccc(CCCCn4ccnc4CCO)cc3)co2)cc1` [B13, 2-[1-[4-[4-[[2-[(E)-2-(4-Ethylphenyl)ethenyl]-1,3-oxazol-4-yl]methoxy]phenyl]butyl]-1H-imidazol-2-yl]-1-ethanol]: 94 to 95 °C; for `OCCc1nccn1CCCCc1ccc(OCc2coc(/C=C/c3ccc(F)cc3)n2)cc1` [B14, 2-(1-{4-[4-({2-[(E)-2-(4-Fluorophenyl)ethenyl]-1,3-oxazol-4-yl}methoxy)phenyl]butyl}-1H-imidazol-2-yl)-1-ethanol]: 130 to 132 °C.
Compound `OCCc1nccn1CCCCc1ccc(OCc2coc(/C=C/c3ccc(Cl)cc3)n2)cc1` [B15, 2-[1-[4-[4-[[2-[(E)-2-(4-Chlorophenyl)ethenyl]-1,3-oxazol-4-yl]methoxy]phenyl]butyl]-1H-imidazol-2-yl]-1-ethanol] came in with a melting point of 127 to 128 °C.
The same measure for `OCCc1nccn1CCCCc1ccc(OCc2coc(/C=C/c3ccc(Br)cc3)n2)cc1` [B16, 2-[1-[4-[4-[[2-[(E)-2-(4-Bromophenyl)ethenyl]-1,3-oxazol-4-yl]methoxy]phenyl]butyl]-1H-imidazol-2-yl]-1-ethanol]: 149 to 150 °C; for `OCC(O)Cc1nccn1CCCc1cccc(OCc2coc(/C=C/c3ccc(C(F)(F)F)cc3)n2)c1` (centres unmarked) [B25, 3-[1-(3-{3-[(2-{(E)-2-[4-(Trifluoromethyl)phenyl]ethenyl}-1,3-oxazol-4-yl)methoxy]phenyl}propyl)-1H-imidazol-2-yl]-1,2-propanediol]: 102 to 104 °C; for `OCC(O)Cc1nccn1CCCc1cccc(OCc2coc(/C=C/c3ccc(F)cc3F)n2)c1` (centres unmarked) [B27, 3-(1-{3-[3-({2-[(E)-2-(2,4-Difluorophenyl)ethenyl]-1,3-oxazol-4-yl}methoxy)phenyl]propyl}-1H-imidazol-2-yl)-1,2-propanediol]: 92 to 94 °C.
`OCC(O)Cc1nccn1CCCCc1ccc(OCc2coc(/C=C/c3c(F)cccc3F)n2)cc1` (centres unmarked) [B28, 3-[1-[4-[4-[[2-[(E)-2-(2,6-Difluorophenyl)ethenyl]-1,3-oxazol-4-yl]methoxy]phenyl]butyl]-1H-imidazol-2-yl]-1,2-propanediol]: the melting point was 123 to 125 °C.

As usually defined, the melting point is the temperature of the solid-liquid transition.
